Measured values: patent US10131652B2, “Pyrimidinyloxy benzene derivatives as herbicides” (E. I. DU PONT DE NEMOURS AND COMPANY, priority 2014, dated 2018)

What was measured:
Assay type in all cases: in vivo
[1] = tested on: galium (catchweed bedstraw, Galium aparine); experiment: Test B postemergence plant response
Method in brief: (§1)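 Weeds grown in loam soil/sand pots were sprayed postemergence at 2 to 10 cm height, one- to two-leaf stage. After approximately 10 days in greenhouse, injury was rated visually against untreated controls on a 0 (no effect) to 100 (complete control) scale; dash means no test result.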

[2] = tested on: blackgrass (Alopecurus myosuroides); experiment: Test B postemergence plant response
Method in brief: as §1

[3] = tested on: corn (Zea mays); experiment: Test B pre-/postemergence plant response
Method in brief: (§2)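 Seeds in loam–sand blend given preemergence soil spray; separately, plants at one- to two-leaf stage (2–10 cm) sprayed postemergence, compounds in non-phytotoxic solvent with surfactant. Injury rated visually versus untreated controls after ~10 days in greenhouse, 0 (no effect) to 100 (complete control).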

[4] = tested on: giant foxtail (Setaria faberii); experiment: Test B pre-/postemergence plant response
Method in brief: as §2

[5] = tested on: Italian ryegrass (Lolium multiflorum); experiment: Test B pre-/postemergence plant response
Method in brief: as §2

[6] = tested on: pigweed (Amaranthus retroflexus); experiment: Test B pre-/postemergence plant response
Method in brief: as §2

[7] = tested on: kochia (Kochia scoparia); experiment: Test B pre-/postemergence plant response
Method in brief: as §2

[8] = tested on: ragweed (common ragweed, Ambrosia elatior); experiment: Test B pre-/postemergence plant response
Method in brief: as §2

[9] = tested on: barnyardgrass (Echinochloa crus-galli); experiment: Test B pre-/postemergence plant response
Method in brief: as §2

[10] = tested on: wheat (Triticum aestivum); experiment: Test B pre-/postemergence plant response
Method in brief: as §2

[11] = tested on: ducksalad (Heteranthera limosa); experiment: Test C flooded paddy test plant response; conditions: Flood, 250 g ai/ha; scale of 0 to 100 where 0 is no effect and 100 is complete control; 13 to 15 days
Method in brief: (§3)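 Plants grown to the 2-leaf stage; pots flooded to 3 cm above soil, test compounds applied directly to paddy water, depth maintained throughout. Greenhouse for 13 to 15 days, then visual rating versus controls on a 0–100 scale (0 no effect, 100 complete control).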

[12] = tested on: small-flower umbrella sedge (Cyperus difformis); experiment: Test C flooded paddy test plant response; conditions: Flood, 250 g ai/ha; scale of 0 to 100 where 0 is no effect and 100 is complete control; 13 to 15 days
Method in brief: as §3

[13] = tested on: rice (Oryza sativa); experiment: Test C flooded paddy test plant response; conditions: Flood, 250 g ai/ha; scale of 0 to 100 where 0 is no effect and 100 is complete control; 13 to 15 days
Method in brief: as §3

[14] = tested on: barnyardgrass (Echinochloa crus-galli); experiment: Test C flooded paddy test plant response; conditions: Flood, 250 g ai/ha; scale of 0 to 100 where 0 is no effect and 100 is complete control; 13 to 15 days
Method in brief: as §3

[15] = 125 g ai/ha, postemergence, 0 to 100 scale, 0 no effect, 100 complete control
[16] = Postemergence, 31 g ai/ha, 0 to 100 scale (0 no effect, 100 complete control)
[17] = 31 g ai/ha, Preemergence, 0 to 100 scale where 0 is no effect and 100 is complete control
[18] = Preemergence, 125 g ai/ha, 0 to 100 scale (0 no effect, 100 complete control)
[19] = 500 g ai/ha, postemergence, 0 to 100 scale, 0 no effect, 100 complete control
[20] = Preemergence, 500 g ai/ha, 0 to 100 scale where 0 is no effect and 100 is complete control

| Compound | Plant response rating, Galium [1, 15] | Plant response rating, Blackgrass [2, 15] | Plant response rating, Corn [3, 15] | Plant response rating, Foxtail, Giant [4, 15] | Foxtail, Giant plant response rating [4, 18] | Plant response rating, Ryegrass, Italian [5, 15] | Ryegrass, Italian plant response rating [5, 18] | Plant response rating, Pigweed [6, 15] | Pigweed plant response rating [6, 18] | Plant response rating, Kochia [7, 15] | Kochia plant response rating [7, 18] | Plant response rating, Ragweed [8, 15] | Ragweed plant response rating [8, 18] | Plant response rating, Barnyardgrass [9, 15] | Barnyardgrass plant response rating [9, 18] | Plant response rating, Wheat [10, 15] | Ducksalad plant response rating [11] | Sedge, Umbrella plant response rating [12] | Rice plant response rating [13] | Barnyardgrass plant response rating [14] | other results |
| --- | --- | --- | --- | --- | --- | --- | --- | --- | --- | --- | --- | --- | --- | --- | --- | --- | --- | --- | --- | --- | --- |
| Fc1cnc(Oc2ccccc2-c2cc(C(F)F)no2)nc1 [Compound 210] | 90 | 30 | 10 | 40 | 90 | 0 | 10 | 80 | 100 | 80 | 90 | 30 | 20 | 0 | 80 | 20 | 85 | 40 | 0 | 0 | Plant response rating, Galium [1, 16]: 50; Plant response rating, Blackgrass [2, 16]: 10; Plant response rating, Corn [3, 16]: 0; Plant response rating, Foxtail, Giant [4, 17]: 40; Plant response rating, Foxtail, Giant [4, 16]: 0; Plant response rating, Ryegrass, Italian [5, 17]: 0; Plant response rating, Ryegrass, Italian [5, 16]: 0; Plant response rating, Pigweed [6, 17]: 100; Plant response rating, Pigweed [6, 16]: 50; Plant response rating, Kochia [7, 17]: 50; Plant response rating, Kochia [7, 16]: 50; Plant response rating, Ragweed [8, 17]: 0; Plant response rating, Ragweed [8, 16]: 10; Plant response rating, Barnyardgrass [9, 17]: 10; Plant response rating, Barnyardgrass [9, 16]: 0; Plant response rating, Wheat [10, 16]: 0 |
| Cc1cnc(Oc2ccccc2-c2cc(C(F)F)no2)nc1 [Compound 211] | 100 | 50 | 10 | 50 | 100 | 0 | 0 | 50 | 100 | 90 | 80 | 30 | 30 | 10 | 50 | 0 | 70 | 20 | 0 | 0 | Plant response rating, Galium [1, 16]: 60; Plant response rating, Blackgrass [2, 16]: 10; Plant response rating, Corn [3, 16]: 0; Plant response rating, Foxtail, Giant [4, 17]: 10; Plant response rating, Foxtail, Giant [4, 16]: 10; Plant response rating, Ryegrass, Italian [5, 17]: 0; Plant response rating, Ryegrass, Italian [5, 16]: 0; Plant response rating, Pigweed [6, 17]: 100; Plant response rating, Pigweed [6, 16]: 20; Plant response rating, Kochia [7, 17]: 20; Plant response rating, Kochia [7, 16]: 40; Plant response rating, Ragweed [8, 17]: 0; Plant response rating, Ragweed [8, 16]: 0; Plant response rating, Barnyardgrass [9, 17]: 10; Plant response rating, Barnyardgrass [9, 16]: 0; Plant response rating, Wheat [10, 16]: 0 |
| COc1cnc(Oc2ccccc2-c2cc(C(F)F)no2)nc1 [Compound 213] | 80 | 10 | 10 | 20 | 80 | 0 | 0 | 80 | 100 | 100 | 50 | 60 | 0 | 0 | 40 | 10 | 75 | 0 | 0 | 0 | Plant response rating, Galium [1, 16]: 50; Plant response rating, Blackgrass [2, 16]: 0; Plant response rating, Corn [3, 16]: 0; Plant response rating, Foxtail, Giant [4, 17]: 0; Plant response rating, Foxtail, Giant [4, 16]: 0; Plant response rating, Ryegrass, Italian [5, 17]: 0; Plant response rating, Ryegrass, Italian [5, 16]: 0; Plant response rating, Pigweed [6, 17]: 80; Plant response rating, Pigweed [6, 16]: 30; Plant response rating, Kochia [7, 17]: 10; Plant response rating, Kochia [7, 16]: 60; Plant response rating, Ragweed [8, 17]: 0; Plant response rating, Ragweed [8, 16]: 10; Plant response rating, Barnyardgrass [9, 17]: 0; Plant response rating, Barnyardgrass [9, 16]: 0; Plant response rating, Wheat [10, 16]: 0 |
| Clc1cnc(Oc2ccccc2-c2cocn2)nc1 [Compound 214] | 10 | 0 | 0 | 0 | 0 | 0 | 0 | 10 | 0 | 0 | 0 | 0 | 0 | 0 | 0 | 0 | 0 | 0 | 0 | 0 | Plant response rating, Galium [1, 16]: 0; Plant response rating, Blackgrass [2, 16]: 0; Plant response rating, Corn [3, 16]: 0; Plant response rating, Foxtail, Giant [4, 17]: 0; Plant response rating, Foxtail, Giant [4, 16]: 0; Plant response rating, Ryegrass, Italian [5, 17]: 0; Plant response rating, Ryegrass, Italian [5, 16]: 0; Plant response rating, Pigweed [6, 17]: 0; Plant response rating, Pigweed [6, 16]: 0; Plant response rating, Kochia [7, 17]: 0; Plant response rating, Kochia [7, 16]: 0; Plant response rating, Ragweed [8, 17]: 0; Plant response rating, Ragweed [8, 16]: 0; Plant response rating, Barnyardgrass [9, 17]: 0; Plant response rating, Barnyardgrass [9, 16]: 0; Plant response rating, Wheat [10, 16]: 0 |
| CC(=O)c1cc(-c2ccccc2Oc2ncc(Cl)cn2)no1 [Compound 215] | 20 | 0 | 20 | 20 | 20 | 0 | 0 | 20 | 20 | 0 | 0 | 0 | 0 | 20 | 40 | 0 | 0 | 0 | 0 | 0 | Plant response rating, Galium [1, 19]: 70; Plant response rating, Blackgrass [2, 19]: 40; Plant response rating, Corn [3, 19]: 40; Plant response rating, Foxtail, Giant [4, 19]: 80; Plant response rating, Foxtail, Giant [4, 20]: 90; Plant response rating, Ryegrass, Italian [5, 19]: 50; Plant response rating, Ryegrass, Italian [5, 20]: 0; Plant response rating, Pigweed [6, 19]: 100; Plant response rating, Pigweed [6, 20]: 90; Plant response rating, Kochia [7, 19]: 10; Plant response rating, Kochia [7, 20]: 0; Plant response rating, Ragweed [8, 19]: 20; Plant response rating, Ragweed [8, 20]: 0; Plant response rating, Barnyardgrass [9, 19]: 90; Plant response rating, Barnyardgrass [9, 20]: 90; Plant response rating, Wheat [10, 19]: 20 |
